# Measurements as given in US20230093594A1, “PANTETHENOYLCYSTEINE DERIVATIVES AND USES THEREOF” (Comet Therapeutics, Inc., priority 2019, published 2023).
# Assays:
# [1] = test system: Peripheral blood mononuclear cells co-cultured with venular endothelial cells (HUVEC) (LPS system); test: BioMAP LPS system (LPS, 24h); assay type: cell-based, human; details: procedure of Example 43 (LPS)
# Experimental: (§1) The BioMAP platform is an in vitro phenotypic profiling technology that screened the compounds of the present disclosure (hereafter indicated as test agents) in human primary cell-based systems modelling complex tissue and disease states. The BioMAP assays were performed using the Eurofin's BioMAP Technology Platform as referenced in below articles to model different diseases on primary cell-based model systems. These systems consisted of either single primary cell types or co-culture cells. Adherent cell types were cultured or co-cultured in 96 or 384-well plates until confluence followed by the addition of compounds prepared in DMSO at a final concentration of <0.1%. In each cell-based system, primary cells from heathy donors (2-6 donors) were pooled and treated with compounds at 1 and 10 μM dose 1h prior to stimulation and remain in culture as indicated in Example 41, Example 42, Example 43, Example 44, Example 45, Example 46, Example 47, Example 48, Example 49, Example 50, Example 51, Example 52.
# Following the general procedure as described in Example 40, Peripheral blood mononuclear cells co-cultured with venular endothelial cells (HUVEC) (LPS system) were stimulated with LPS for 24h in the presence or absence of compounds, to model cardiovascular disease and chronic inflammation. Biomarkers read out were; MCP-1, VCAM-1, Thrombomodulin, Tissue Factor, CD40, E-selectin, CD69, IL-8, IL-1α, M-CSF, sPGE2, SRB and TNFα.
# [2] = test system: human primary cell-based systems; test: BioMAP assay, general procedure of Example 40 (system not stated)
# Experimental: as §1
# [3] = test system: Peripheral blood mononuclear cells co-cultured with B-cells (BT system); test: BioMAP BT system (a-IgM and TCR ligands, 72h); assay type: cell-based, human; details: procedure of Example 45 (BT)
# Experimental: as §1
# Following the general procedure as described in Example 40, Peripheral blood mononuclear cells were co-cultured with B-cells (BT system) were treated with either a-IgM and TCR ligands for 72h in the presence or absence of the compounds to model asthma, allergy, oncology and autoimmunity. Biomarkers read out were; B-cell proliferation, PBMC cytotoxicity, secreted IgG, sIL-17A, sIL-17F, siL-2, sIL-6 and s-TNFα.
# [4] = test system: Venular Endothelial cells (HUVEC) (3C system); test: BioMAP 3C system (IL-1β, TNFα, IFNγ, 24h); assay type: cell-based, human; details: procedure of Example 41 (3C), 10 μM
# Experimental: as §1, with “In each cell-based system, primary cells from heathy donors (2-6 donors) were pooled and treated with compounds at 1 and 10 μM dose 1h prior to stimulation and remain in culture as indicated in Example 41, Example 42, Example 43, Example 44, Example 45, Example 46, Example 47, Example 48, Example 49, Example 50, Example 51, Example 52.” left out
# Following the general procedure as described in Example 40, Venular Endothelial cells (HUVEC) (3C system) were treated with IL-1β, TNFα, IFNγ for 24h to model Th1 driven cardiovascular and chronic inflammation diseases in the presence or absence of the compounds. Biomarker read out were; Tissue Factor, ICAM-1, E-selectin, uPAR (CD87), IL-8, MIG, HLA-DR, proliferation and SRB (Sulfo-rhodamine i.e., staining for protein content).
# [5] = test system: Bronchial epithelial cells (BE3C system); test: BioMAP BE3C system (IL-1β, TNFα, IFNγ, 24h); assay type: cell-based, human; details: procedure of Example 47 (BE3C), 10 μM
# Experimental: as §1, with “In each cell-based system, primary cells from heathy donors (2-6 donors) were pooled and treated with compounds at 1 and 10 μM dose 1h prior to stimulation and remain in culture as indicated in Example 41, Example 42, Example 43, Example 44, Example 45, Example 46, Example 47, Example 48, Example 49, Example 50, Example 51, Example 52.” left out
# Following the general procedure as described in Example 40, Bronchial epithelial cells (BE3C system) were treated with IL-1β, TNFα and IFNγ for 24h in the presence or absence of the compounds to model lung inflammation and chronic obstructive pulmonary disease (COPD). Biomarkers read out were; ICAM-1, uPAR, IP-10, I-TA C, IL-A, MIG, EGFR, HLA-DR, IL-1α, Keratin 8/18, MMP-1, MMP-9, PAI-1, SRB, tPA, uPA.
# [6] = test system: MMA Patient fibroblasts (TSI 3739); test: Mitochondrial morphology imaging in MMA patient fibroblasts (TSI 3739); assay type: cell-based; details: image compared with fragmented mitochondria in vehicle control
# [7] = test system: Peripheral blood mononuclear cells co-cultured with venular endothelial cells (Sag system); test: BioMAP SAg system (T-cell ligands); assay type: cell-based, human; details: procedure of Example 44 (SAg), 10 μM
# Experimental: as §1, with “In each cell-based system, primary cells from heathy donors (2-6 donors) were pooled and treated with compounds at 1 and 10 μM dose 1h prior to stimulation and remain in culture as indicated in Example 41, Example 42, Example 43, Example 44, Example 45, Example 46, Example 47, Example 48, Example 49, Example 50, Example 51, Example 52.” left out
# Following the general procedure as described in Example 40, Peripheral blood mononuclear cells were co-cultured with venular endothelial cells and treated with […] (T-cell ligands) (Sag system) in the presence or absence of compounds to model autoimmune and chronic inflammation Biomarkers read out were; MCP-1, CD38, CD40, E-selectin, CD69, IL-8, MIG, PBMC cytotoxicity, Proliferation and SRB.
# [8] = test system: Bronchial epithelial cells co-cultured with dermal fibroblast (BF4T system); test: BioMAP BF4T system (TNFα and IL-4, 24h); assay type: cell-based, human; details: procedure of Example 46 (BF4T), 10 μM
# Experimental: as §1
# Following the general procedure as described in Example 40, Bronchial epithelial cells were co-cultured with dermal fibroblast (BF4T system) and were treated with TNFα. and IL-4 for 24h in the presence or absence of the compounds to model asthma, allergy, fibrosis, lung inflammation. Biomarkers read out were; MCP-1, Eotaxin-3, VCAM-1, ICAM-1, CD90, IL-8, IL-la, keratin 8/18, MMP-1, MMP-3, MMP-9, PAI-1, SRB, tPA, uPA.
# [9] = test system: Dermal fibroblasts (HDF3CGF system); test: BioMAP HDF3CGF system (IL-1β, TNFα, IFNγ, EGF, bFGF, PDGF-BB, 24h); assay type: cell-based, human; details: procedure of Example 49 (HDF3CGF), 10 μM
# Experimental: as §1
# Following the general procedure as described in Example 40, Dermal fibroblasts (HDF3CGF system) were treated with IL-1β, TNFα and IFNγ, EGF, bFGF and PDGF-BB for 24h in the presence or absence of the compounds to model fibrosis and chronic inflammation. Biomarkers read out were; MCP-1, VCAM-1, ICAM-1, Collagen-I, Collagen-III, IP-10, I-TAC, IL-8, MIG, EGFR, M-CSF, MMP-1, PAI-1, SRB, TIMP-1, TIMP-2 and proliferation was measured for 72h.
# [10] = test system: Venular endothelial cells co-cultured with macrophages (Mphg system); test: BioMAP Mphg system (TLR2 ligand, 24h); assay type: cell-based, human
# Experimental: as §1
# Following the general procedure as described in Example 40, Venular endothelial cells co-cultured with macrophages (Mphg system) and treated with TLR2 ligand for 24h in the presence or absence of the compounds to mimic cardiovascular inflammation, restenosis and chronic inflammation. Biomarkers read out were; MCP-1, MIP-1α, VCAM-1, CD40, E-selectin, CD69, IL-8, IL-1α, M-CSF, sIL-10 and SRB.
# [11] = test system: MMA Patient fibroblasts (GM00371); test: Mitochondrial morphology imaging in MMA patient fibroblasts (GM00371); assay type: cell-based; details: image compared with fragmented mitochondria in vehicle control
# [12] = test system: Keratinocytes co-cultured with dermal fibroblast (KF3CT system); test: BioMAP KF3CT system (IL-1β, TNFα, IFNγ, TGFβ, 24h); assay type: cell-based, human; details: procedure of Example 50 (KF3CT), 1 μM
# Experimental: as §1
# Following the general procedure as described in Example 40, Keratinocytes were co-cultured with dermal fibroblast (KF3CT system) and treated with IL-1β, TNFα, IFNγ and TGFβ for 24h in the presence or absence of the compounds to model psoriasis, dermatitis and skin biology. Biomarkers read out were; MCP-1, ICAM-1, IP-10, IL-8, MIG, IL-1α, MMP-9, PAI, SRB, TIMP-2, uPA.
# [13] = test system: Venular Endothelial cells (HUVEC) (4H system); test: BioMAP 4H system (IL-4 and histamine, 24h); assay type: cell-based, human; details: procedure of Example 42, 10 μM
# Experimental: as §1
# Following the general procedure as described in Example 40, Venular Endothelial cells (HUVEC) (4H system) were treated with IL-4 and histamine for 24h to model Th2 driven allergy and autoimmunity in the presence or absence of compounds. […]
# [14] = procedure of Example 52 (Mphg), 10 μM
structure (smiles),measurement,setting,value
"COC(=O)CCC(=O)SC[C@H](NC(=O)CCNC(=O)[C@H](O)C(C)(C)CO)C(=O)OC [Compound 8, methyl 4-[[(2R)-2-[3-[(2R)-2,4-dihydroxy-3,3-dimethylbutanamido]propanamido]-3-methoxy-3-oxopropyl]sulfanyl]-4-oxobutanoate]",% decrease in IL-1α,[1]; 1 μM,≥20%
same,% decrease in IL-8,[1]; 10 μM,≥20%
same,% decrease in M-CSF,[1]; 10 μM,≥10%
same,% decrease in TissueFactor,[1]; 10 μM,≥10%
same,% increase in sTNFα,[1]; 10 μM,≥10%
same,% decrease in Serum Amyloid A,"[2]; procedure of Example 40, 1 μM",≥10%
same,% decrease in VCAM-1,"[2]; procedure of Example 40, 1 μM",≥10%
same,% increase in Collagen I,"[2]; procedure of Example 40, 1 μM",≥10%
same,% decrease in Proliferation,"[2]; procedure of Example 40, 10 μM",≥10%
same,% decrease in Thrombomodulin,"[2]; procedure of Example 40, 10 μM",≥20%
same,% increase in HLA-DR,"[2]; procedure of Example 40, 10 μM",≥10%
same,% increase in IL-6,"[2]; procedure of Example 40, 10 μM",≥10%
same,% decrease in sTNFα,[3]; 1 μM,≥10%
same,% decrease in sIL-17,[3]; 10 μM,≥20%
same,% increase in sIL-2,[3]; 10 μM,≥20%
same,% decrease in IL-8,[4],≥10%
same,% decrease in uPA,[5],≥10%
same,% increase in PAI-I,[5],≥10%
same,mitochondrial morphology (elongation and networking of mitochondria),[6],elongation and networking of mitochondria promoted
same,% increase in CD69,[7],≥10%
same,% decrease in IL-1α,[8],≥10%
same,% decrease in MMP-9,[8],≥10%
same,% increase in VCAM-1,[8],≥10%
same,% decrease in TIMP-1,[9],≥10%
same,% decrease in TIMP-2,[9],≥10%
same,% increase in Collagen III,[9],≥20%
same,% decrease in CD69,"[10]; procedure of Example 52 (Mphg), 1 μM",≥20%
same,% decrease in E-Selectin,[10]; [14],≥10%
same,% decrease in IL-8,[10]; [14],≥20%
same,% decrease in α-SMA,"[10]; procedure of Example 52, 1 μM",≥10%
same,% increase in MMP-1,"[10]; procedure of Example 52, 1 μM",≥10%
same,mitochondrial morphology (elongation and networking of mitochondria),[11],elongation and networking of mitochondria promoted
same,% decrease in MMP-9,[12],≥10%
same,% decrease in E-Selectin,[13],≥20%
